Source: patent US20050176733A1, “Chk-1 inhibitors” (Millennium Pharmaceuticals, Inc., priority 2004, published 2005)

Target: T1, Recombinant human Chk-1 (GST-Chk-1) (Homo sapiens, UniProt O14757)
T1 construct: made in house; host or cells: insect cells (baculovirus, Bac-to-Bac expression system)
T1 sequence (O14757 1-476): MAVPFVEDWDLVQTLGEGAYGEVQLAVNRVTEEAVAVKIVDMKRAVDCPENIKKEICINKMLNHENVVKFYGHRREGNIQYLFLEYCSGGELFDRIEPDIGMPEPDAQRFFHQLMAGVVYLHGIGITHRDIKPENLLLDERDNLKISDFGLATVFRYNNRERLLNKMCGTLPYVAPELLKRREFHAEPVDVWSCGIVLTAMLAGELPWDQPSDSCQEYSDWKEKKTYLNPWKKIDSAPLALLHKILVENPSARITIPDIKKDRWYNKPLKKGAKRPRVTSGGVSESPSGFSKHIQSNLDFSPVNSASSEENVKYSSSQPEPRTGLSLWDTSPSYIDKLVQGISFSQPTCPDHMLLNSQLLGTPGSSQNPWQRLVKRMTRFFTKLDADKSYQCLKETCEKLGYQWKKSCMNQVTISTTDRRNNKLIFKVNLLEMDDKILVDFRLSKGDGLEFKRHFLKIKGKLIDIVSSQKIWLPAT
Assay: Chk-1 FlashPlate Kinase Assay
Format: biochemical
Conditions: for inhibition at 1 µM: at a concentration of 1.0 μM; for inhibition at 10 µM: at a concentration of 10 μM, read-out: inhibition of Chk-1 (Chk-1 induced 33P incorporation)
Method: Recombinant human Chk-1 was expressed as a fusion protein with glutathione S-transferase at the amino-terminus (GST-Chk-1) using standard baculovirus vectors and (Bac-to-Bac®) insect cell expression system purchased from GIBCO™ Invitrogen.
Recombinant protein expressed in insect cells was purified using glutathione sepharose (Amersham Biotech) using standard procedures described by the manufacturer.
Assays (25 μL) contained 8.7 nM GST-Chk-1, 10 mM MES, 0.1 mM ethylene glycol-bis(β-aminoethylether)-N,N,N′,N′-tetraacetic acid (EGTA, pH 8.0), 2 mM DTT, 0.05% Tween 20, 3 μM peptide substrate (Biotin-ILSRRPSYRKILND-free acid) (SEQ ID NO: 1), 1 μM ATP, 0.4 μCi ^33P-γ-ATP (NEN), 4% DMSO. Reactions were incubated for 30 minutes at room temperature, terminated with 50 μL of 50 mM EDTA and […] were transferred to streptavidin-coated FlashPlates® (NEN) and incubated for 1 hour at room temperature. Plates were washed with phosphate buffered saline containing 0.01% Tween-20 and 10 mM sodium pyrophosphate. Plates were dried, sealed with Topseal™ (NEN) and amount of ^33P incorporated into the peptide substrate measure using a Packard Topcount® NXT™ scintillation counter with standard settings.

Structure (SMILES)	inhibition at 1 µM [%]	inhibition at 10 µM [%]
Cc1cnc(NC(=O)Nc2ccc(N3CCCC3)cc2OCCCNC(=O)CN(C)C)cn1 [Compound I-11, 2-Dimethylamino-N-(3-{2-[3-(5-methyl-pyrazin-2-yl)-ureido]-5-pyrrolidin-1-yl-phenoxy}-propyl)-acetamide]	≥ 50	≥ 50
Cc1cnc(NC(=O)Nc2ccc(N3CCN(C)CC3)cc2OCCCNC(=O)c2ccc(Cl)cc2)cn1 [Compound I-13, 4-Chloro-N-(3-{5-(4-methyl-piperazin-1-yl)-2-[3-(5-methyl-pyrazin-2-yl)-ureido]-phenoxy}-propyl)-benzamide]	≥ 50	≥ 50
NC(=O)c1ccc(NC(=O)Nc2cc(Cl)ccc2OCCCNC(=O)[C@@H](N)Cc2ccc(Cl)cc2)nc1 [Compound I-2, 6-[3-(2-{3-[2-Amino-3-(4-chloro-phenyl)-propionylamino]-propoxy}-5-chloro-phenyl)-ureido]-nicotinamide]	≥ 50	≥ 50
CN1CCN(C(=O)CCCOc2ccc(Cl)cc2NC(=O)Nc2ccc(C#N)cn2)CC1 [Compound I-14, 1-{5-Chloro-2-[4-(4-methyl-piperazin-1-yl)-4-oxo-butoxy]-phenyl}-3-(5-cyano-pyridin-2-yl)-urea]	≥ 50	≥ 50
N#Cc1ccc(NC(=O)Nc2cc(Cl)ccc2OCCCC(=O)N2CCOCC2)nc1 [Compound I-110, 1-[5-Chloro-2-(4-morpholin-4-yl-4-oxo-butoxy)-phenyl]-3-(5-cyano-pyridin-2-yl)-urea]		≥ 50
Cc1cnc(NC(=O)Nc2cc(Cl)ccc2OCCCNC(=O)C(N)c2ccc(Cl)cc2)cn1 (centres unmarked) [Compound I-111, 2-Amino-N-(3-{4-chloro-2-[3-(5-methyl-pyrazin-2-yl)-ureido]-phenoxy}-propyl)-2-(4-chloro-phenyl)-acetamide]	≥ 50	≥ 50
Cc1cnc(NC(=O)Nc2cc(Cl)ccc2OCCCNC(=O)c2ccc(N(C)C)cc2)cn1 [Compound I-15, N-(3-{4-Chloro-2-[3-(5-methyl-pyrazin-2-yl)-ureido]-phenoxy}-propyl)-4-dimethylamino-benzaminde]	≥ 50	≥ 50
Cc1cnc(NC(=O)Nc2ccc(N3CCCC3)cc2OCCCNC(=O)c2ccc(Cl)cc2)cn1 [Compound I-10, 4-Chloro-N-(3-{2-[3-(5-methyl-pyrazin-2-yl)-ureido]-5-pyrrolidin-1-yl-phenoxy}-propyl)-benzamide]		≥ 50
CN(C)CC(=O)NCCCOc1ccc(Cl)cc1NC(=O)Nc1ccc(C#N)cn1 [Compound I-39, N-(3-{4-Chloro-2-[3-(5-cyano-pyridin-2-yl)-ureido]-phenoxy}-propyl)-2-dimethylamino-acetamide]	≥ 50	≥ 50
Cc1cnc(NC(=O)Nc2cc(Cl)ccc2OCCCNC(=O)[C@@H](N)Cc2ccc(Cl)cc2)cn1 [Compound I-16, 2-Amino-N-(3-{4-chloro-2-[3-(5-methyl-pyrazin-2-yl)-ureido]-phenoxy}-propyl)-3-(4-chloro-phenyl)-propionamide]	≥ 50	≥ 50
CN1CCN(C(=O)NCCCOc2ccc(Cl)cc2NC(=O)Nc2ccc(C#N)cn2)CC1 [Compound I-18, 4-Methyl-piperazine-1-carboxylic acid (3-{4-chloro-2-[3-(5-cyano-pyridin-2-yl)-ureido]-phenoxy}-propyl)-amide]	≥ 50	≥ 50
Cc1cnc(NC(=O)Nc2cc(C(=O)NCCN(C)C)ccc2OCCCNC(=O)c2ccc(Cl)cc2)cn1 [Compound I-9, 4-[3-(4-Chloro-benzoylamino)-propoxy]-N-(2-dimethylamino-ethyl)-3-[3-(5-methyl-pyrazin-2-yl)-ureido]-benzamide]	≥ 50	≥ 50

Second part, the compound after the results:

inhibition at 1 µM [%]	inhibition at 10 µM [%]	Structure (SMILES)
≥ 50	≥ 50	Cc1cnc(NC(=O)Nc2cc(Cl)ccc2OCC(=O)N2CCOCC2)cn1 [Compound I-8, 1-[5-Chloro-2-(2-morpholin-4-yl-2-oxo-ethoxy)-phenyl]-3-(5-methyl-pyrazin-2-yl)-urea]
	≥ 50	Cc1cnc(NC(=O)Nc2cc(C(=O)N3CCN(C)CC3)ccc2OCCCNC(=O)c2ccc(Cl)cc2)cn1 [Compound I-20, 4-Chloro-N-(3-{4-(4-methyl-piperazine-1-carbonyl)-2-[3-(5-methyl-pyrazin-2-yl)-ureido]-phenoxy}-propyl)-benzamide]
≥ 50	≥ 50	Cc1cnc(NC(=O)Nc2cc(Cl)ccc2OCCCNC(=O)CN(C)C)cn1 [Compound I-4, N-(3-{4-Chloro-2-[3-(5-methyl-pyrazin-2-yl)-ureido]-phenoxy}-propyl)-2-dimethylamino-acetamide]
≥ 50	≥ 50	Cc1cnc(NC(=O)Nc2cc(Cl)ccc2OCCCNC(=O)CN2CCOCC2)cn1 [Compound I-6, N-(3-{4-Chloro-2-[3-(5-methyl-pyrazin-2-yl)-ureido]-phenoxy}-propyl)-2-morpholin-4-yl-acetamide]
≥ 50	≥ 50	Cc1cnc(NC(=O)Nc2cc(Cl)ccc2OCCCNC(=O)CN2CCN(C)CC2)cn1 [Compound I-7, N-(3-{4-Chloro-2-[3-(5-methyl-pyrazin-2-yl)-ureido]-phenoxy}-propyl)-2-(4-methyl-piperazin-1-yl)-acetamide]
≥ 50	≥ 50	N#Cc1ccc(NC(=O)Nc2cc(Cl)ccc2OCCCNC(=O)N2CCOCC2)nc1 [Compound I-12, Morpholine-4-carboxylic acid (3-{4-chloro-2-[3-(5-cyano-pyridin-2-yl)-ureido]-phenoxy}-propyl)-amide]
≥ 50	≥ 50	Cc1cnc(NC(=O)Nc2cc(Cl)ccc2OCCCNC(=O)N2CCOCC2)cn1 [Compound I-5, Morpholine-4-carboxylic acid (3-{4-chloro-2-[3-(5-methyl-pyrazin-2-yl)-ureido]-phenoxy}-propyl)-amide]
